Laboratory results taken from ChEMBL document CHEMBL4699511, “Cedrol, a Sesquiterpene Alcohol, Enhances the Anticancer Efficacy of Temozolomide in Attenuating Drug Resistance via Regulation of the DNA Damage Response and MGMT Expression” (J Nat Prod, 2020).
Active and inactive are the calls of the source. No cut-off for these calls is given here.

How the values were obtained:
RG2 [1] = assay: Synergistic cytotoxicity against rat RG2 cells assessed as synergistic effect index at 112.4 uM after 48 hrs in presence of 515.1 uM TMZ by MTT assay; assay type: functional
DBTRG-05MG [2] = assay: Induction of apoptosis in human DBTRG-05MG cells assessed as cleaved caspace-9 expression at 112.4 uM after 48 hrs in presence of TMZ by Western blot analysis (reference value: 1); assay type: functional
DBTRG-05MG [3] = assay: Synergistic cytotoxicity against human DBTRG-05MG cells assessed as combination index at 89.9 uM after 48 hrs in presence of 309 uM TMZ by MTT assay; assay type: functional
RG2 [4] = assay: Synergistic cytotoxicity against rat RG2 cells assessed as synergistic effect index at 134.9 uM after 48 hrs in presence of 103 uM TMZ by MTT assay; assay type: functional
RG2 [5] = assay: Induction of DNA damage in rat RG2 cells assessed as ATR phosphorylation at ser428 residues at 112.4 uM after 48 hrs by Western blot analysis (reference value: 1); assay type: functional
DBTRG-05MG [6] = assay: Synergistic cytotoxicity against human DBTRG-05MG cells assessed as synergistic effect index at 134.9 uM after 48 hrs in presence of 412.1 uM TMZ by MTT assay; assay type: functional
RG2 [7] = assay: Synergistic cytotoxicity against rat RG2 cells assessed as synergistic effect index at 112.4 uM after 48 hrs in presence of 206 uM TMZ by MTT assay; assay type: functional
DBTRG-05MG [8] = assay: Synergistic cytotoxicity against human DBTRG-05MG cells assessed as synergistic effect index at 89.9 uM after 48 hrs in presence of 412.1 uM TMZ by MTT assay; assay type: functional
DBTRG-05MG [9] = assay: Induction of cell cycle arrest in human DBTRG-05MG cells assessed as p21 expression at 112.4 uM after 48 hrs by Western blot analysis (reference value: 1); assay type: functional
DBTRG-05MG [10] = assay: Induction of cell cycle arrest in human DBTRG-05MG cells assessed as CDK4 expression at 112.4 uM after 48 hrs in presence of TMZ by Western blot analysis (reference value: 1); assay type: functional
[11] = Effect on ERK expression in human DBTRG-05MG cells at 112.4uM after 48 hrs in presence of TMZ by Western blot analysis (reference value: 1); assay type: functional
RG2 [12] = assay: Inhibition of ERK phosphorylation at Tyr204 residues in rat RG2 cells at 112.4uM after 48 hrs by Western blot analysis (reference value: 1); assay type: cell-based
RG2 [13] = assay: Induction of DNA damage in rat RG2 cells assessed as ATM phosphorylation at ser1981 residues at 112.4 uM after 48 hrs in presence of TMZ by Western blot analysis (reference value: 1); assay type: functional
[14] = Effect on JNK expression in human DBTRG-05MG cells at 112.4uM after 48 hrs in presence of TMZ by Western blot analysis (reference value: 1); assay type: functional
RG2 [15] = assay: Induction of apoptosis in rat RG2 cells assessed as phosphorylated caspace-3 expression at 112.4 uM after 48 hrs in presence of TMZ by Western blot analysis (reference value: 1); assay type: functional
[16] = Effect on JNK expression in rat RG2 cells at 112.4uM after 48 hrs by Western blot analysis (reference value: 1); assay type: functional
RG2 [17] = assay: Induction of cell cycle arrest in rat RG2 cells assessed as p21 expression at 112.4 uM after 48 hrs by Western blot analysis (reference value: 1); assay type: functional
DBTRG-05MG [18] = assay: Induction of cell cycle arrest in human DBTRG-05MG cells assessed as CDK2 expression at 112.4uM after 48 hrs in presence of TMZ by Western blot analysis (reference value: 1); assay type: functional
RG2 [19] = assay: Induction of apoptosis in rat RG2 cells assessed as increase in apoptotic body formation at 112.4 uM after 48 hrs by TUNEL assay; assay type: functional, cell-based
RG2 [20] = assay: Synergistic cytotoxicity against rat RG2 cells assessed as synergistic effect index at 134.9 uM after 48 hrs in presence of 515.1 uM TMZ by MTT assay; assay type: functional
RG2 [21] = assay: Induction of cell cycle arrest in rat RG2 cells assessed as accumulation at S phase at 112.4 uM after 24 hrs in presence of TMZ by propidium iodide staining based flow cytometric analysis (reference value: 20.15 +/- 2.44%); assay type: functional
RG2 [22] = assay: Induction of apoptosis in rat RG2 cells assessed as cleaved caspace-3 expression at 112.4 uM after 48 hrs in presence of TMZ by Western blot analysis (reference value: 1); assay type: functional
[23] = Synergistic cytotoxicity against rat CTX TNA2 cells assessed as combination index at 89.9 uM after 48 hrs in presence of 103 uM TMZ by MTT assay; assay type: cell-based; conditions: ctx tna2, 48 h
RG2 [24] = assay: Induction of apoptosis in rat RG2 cells assessed as Bcl2 expression at 112.4 uM after 48 hrs by Western blot analysis (reference value: 1); assay type: functional
RG2 [25] = assay: Synergistic cytotoxicity against rat RG2 cells assessed as combination index at 134.9 uM after 48 hrs in presence of 515.1 uM TMZ by MTT assay; assay type: functional
RG2 [26] = assay: Induction of cell cycle arrest in rat RG2 cells assessed as accumulation at S phase at 112.4 uM after 12 hrs in presence of TMZ by propidium iodide staining based flow cytometric analysis (reference value: 20.15 +/- 2.44%); assay type: functional
DBTRG-05MG [27] = assay: Induction of apoptosis in human DBTRG-05MG cells assessed as cleaved PARP expression at 112.4 uM after 48 hrs in presence of TMZ by Western blot analysis (reference value: 1); assay type: functional
DBTRG-05MG [28] = assay: Induction of cell cycle arrest in human DBTRG-05MG cells assessed as accumulation at S phase at 112.4 uM after 12 hrs in presence of TMZ by propidium iodide staining based flow cytometric analysis (reference value: 22.76 +/- 1.56%); assay type: functional
[29] = Effect on p38 expression in rat RG2 cells at 112.4uM after 48 hrs in presence of TMZ by Western blot analysis (reference value: 1); assay type: functional
DBTRG-05MG [30] = assay: Antitumour activity against human DBTRG-05MG cells xenografted in BALB/c nude mouse assessed as increase in survival time at 5 mg/kg, ip for 5 days and measured every 2 days; assay type: functional, organism-based; conditions: time 5.0 day
RG2 [31] = assay: Induction of cell cycle arrest in rat RG2 cells assessed as accumulation at G2/M phase at 206 uM after 6 hrs by propidium iodide staining based flow cytometric analysis (reference value: 20.04 +/- 0.55%); assay type: functional
RG2 [32] = assay: Induction of DNA damage in rat RG2 cells assessed as ATR phosphorylation at ser428 residues at 206 uM after 48 hrs by Western blot analysis (reference value: 1); assay type: functional
RG2 [33] = assay: Induction of cell cycle arrest in rat RG2 cells assessed as p21 expression at 206 uM after 48 hrs by Western blot analysis (reference value: 1); assay type: functional
[34] = Effect on JNK expression in rat RG2 cells at 206 uM after 48 hrs by Western blot analysis (reference value: 1); assay type: functional

## C[C@@H]1CC[C@H]2C(C)(C)[C@H]3C[C@@]12CC[C@@]3(C)O [CEDROL]
RG2 [1]
  Activity_index: 0.83
DBTRG-05MG [2]
  fold change (FC): 3.4
DBTRG-05MG [3]
  CI: 0.74
RG2 [4]
  Activity_index: 0.9
RG2 [5]
  fold change (FC): 0.9
DBTRG-05MG [6]
  Activity_index: 0.9
RG2 [7]
  Activity_index: 0.87
DBTRG-05MG [8]
  Activity_index: 0.76
DBTRG-05MG [9]
  fold change (FC): 1.1
DBTRG-05MG [10]
  fold change (FC): 0.6
[11]
  fold change (FC): 0.8
RG2 [12]
  fold change (FC): 0.9
RG2 [13]
  fold change (FC): 1
[14]
  fold change (FC): 0.4
RG2 [15]
  fold change (FC): 1.2
[16]
  fold change (FC): 0.8
RG2 [17]
  fold change (FC): 1.6
DBTRG-05MG [18]
  fold change (FC): 0.7
RG2 [19]
  Activity: Active
RG2 [20]
  Activity_index: 0.89
RG2 [21]
  Activity: 11.96%
RG2 [22]
  fold change (FC): 3.3
[23]
  CI: 1.24
RG2 [24]
  fold change (FC): 1.1
RG2 [25]
  CI: 1.02
RG2 [26]
  Activity: 21.29%
DBTRG-05MG [27]
  fold change (FC): 1.9
DBTRG-05MG [28]
  Activity: 16.75%
[29]
  fold change (FC): 0.5

## Cn1nnc2c(C(N)=O)ncn2c1=O [TEMOZOLOMIDE]
DBTRG-05MG [30]
  Activity: Active
RG2 [31]
  Activity: 20.81%
RG2 [32]
  fold change (FC): 0.8
RG2 [33]
  fold change (FC): 2.3
[34]
  fold change (FC): 1
